Reference: patent US20020137929A1, “1 - (3-heterocyclylphenyl) isothiourea, -isourea, -guanidine and -amidine herbicidal agents” (Intellectual Property Department, BASF Aktiengesellschaft, priority 1998, published 2002)

Legend:
AMBEL (Ragweed, Common) = assay: Postemergence herbicidal evaluation; assay type: in vivo, Ambrosia artemisifolia; conditions: postemergence
Summary of the method: (§1)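 Visual 0–9 rating versus control (stand, vigor, malformation, size, chlorosis, overall appearance), taken four to five weeks post-spray. Two-week-old seedlings received roughly 0.0156–0.500 kg/ha active in acetone/water (50/50) with 0.5% TWEEN 20 via nozzle at 40 psi.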

[1] = system: TRZAWR (Wheat, Winter, cv Riband); assay: Postemergence herbicidal evaluation; assay type: in vivo, Triticum aestivum; conditions: postemergence
Summary of the method: as §1

GALAP (Galium) = assay: Preemergence herbicidal evaluation; assay type: in vivo, Galium aparine; conditions: rated 4-5 weeks after treatment
Summary of the method: (§2)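 In this greenhouse assay, monocot and dicot seeds are planted in soil and treated prior to emergence with an aqueous acetone spray (about 0.0156-0.500 kg/ha). Plants are assessed visually against control on a 0-9 scale after 4-5 weeks.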

[2] = system: IPOHE (Morningglory, Ivyleaf); assay: Preemergence herbicidal evaluation; assay type: in vivo, Ipomoea hederacea; conditions: rated 4-5 weeks after treatment
Summary of the method: as §2

ECHCG (Barnyardgrass) [3] = assay: Postemergence herbicidal evaluation; assay type: in vivo, Echinochloa crus-galli; conditions: postemergence
Summary of the method: as §1

[4] = system: GLXMAW (Soybean, Williams); assay: Postemergence herbicidal evaluation; assay type: in vivo, Glycine max, (L.) Merr. cv Williams; conditions: postemergence
Summary of the method: as §1

ECHCG (Barnyardgrass) [5] = assay: Preemergence herbicidal evaluation; assay type: in vivo, Echinochloa crus-galli; conditions: rated 4-5 weeks after treatment
Summary of the method: as §2

[6] = system: CHEAL (Lambsquarters, Common); assay: Preemergence herbicidal evaluation; assay type: in vivo, Chenopodium album; conditions: rated 4-5 weeks after treatment
Summary of the method: as §2

ZEAMX (Corn, Field) = assay: Preemergence herbicidal evaluation; assay type: in vivo, Zea mays; conditions: rated 4-5 weeks after treatment
Summary of the method: as §2

ABUTH (Velvetleaf) = assay: Postemergence herbicidal evaluation; assay type: in vivo, Abutilon theophrasti; conditions: postemergence
Summary of the method: as §1

CASOB (Sicklepod) = assay: Preemergence herbicidal evaluation; assay type: in vivo, Cassia obtusifolia; conditions: rated 4-5 weeks after treatment
Summary of the method: as §2

SETVI (Foxtail, Green) = assay: Postemergence herbicidal evaluation; assay type: in vivo, Setaria viridis; conditions: postemergence
Summary of the method: as §1

[7] = system: ECHORC (Watergrass (Calif.)); assay: Postemergence weed control under flooded paddy conditions; assay type: in vivo, Echinochloa oryzoides; conditions: postemergence weeds, rated 3 to 4 weeks after treatment
Summary of the method: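 Containers holding 3–5 cm weeds and rice at 1.5–2.5 leaves are flooded to 1.5–3 cm above soil. Compound in 50/50 v/v aqueous/acetone is then added directly to the water, about 0.0313–0.500 kg/ha. Plants are kept in the greenhouse and rated 0–9 visually at 3–4 weeks.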

[8] = system: IPOHE (Morningglory, Ivyleaf); assay: Postemergence herbicidal evaluation; assay type: in vivo, Ipomoea hederacea; conditions: postemergence
Summary of the method: as §1

Compound: Cn1c(C(F)(F)F)cc(=O)n(-c2cc(N=C3SCC(=O)N3C3CCOC3=O)c(Cl)cc2F)c1=O (stereo not shown) [Compound 73]
- AMBEL herbicidal rating (AMBEL (Ragweed, Common); rate 0.0158 kg/ha): 9.0
- AMBEL herbicidal rating (AMBEL (Ragweed, Common); rate 0.0315 kg/ha): 9.0
- AMBEL herbicidal rating (AMBEL (Ragweed, Common); rate 0.0630 kg/ha): 9.0
- TRZAWR herbicidal rating ([1]; rate 0.0158 kg/ha): 3.5
- TRZAWR herbicidal rating ([1]; rate 0.0315 kg/ha): 4.0
- TRZAWR herbicidal rating ([1]; rate 0.0630 kg/ha): 5.0
- Preemergence herbicidal rating GALAP (GALAP (Galium); rate 0.0156 kg/ha): 0.0
- Preemergence herbicidal rating GALAP (GALAP (Galium); rate 0.0313 kg/ha): 0.0
- Preemergence herbicidal rating GALAP (GALAP (Galium); rate 0.0625 kg/ha): 0.0
- Preemergence herbicidal rating GALAP (GALAP (Galium); rate 0.1250 kg/ha): 4.0
- Preemergence herbicidal rating GALAP (GALAP (Galium); rate 0.2500 kg/ha): 9.0
- Preemergence herbicidal rating IPOHE ([2]; rate 0.0156 kg/ha): 0.0
- Preemergence herbicidal rating IPOHE ([2]; rate 0.0313 kg/ha): 1.0
- Preemergence herbicidal rating IPOHE ([2]; rate 0.0625 kg/ha): 0.0
- Preemergence herbicidal rating IPOHE ([2]; rate 0.1250 kg/ha): 1.0
- Preemergence herbicidal rating IPOHE ([2]; rate 0.2500 kg/ha): 7.0
- ECHCG herbicidal rating (ECHCG (Barnyardgrass) [3]; rate 0.0158 kg/ha): 2.0
- ECHCG herbicidal rating (ECHCG (Barnyardgrass) [3]; rate 0.0315 kg/ha): 2.0
- ECHCG herbicidal rating (ECHCG (Barnyardgrass) [3]; rate 0.0630 kg/ha): 3.0
- GLXMAW herbicidal rating ([4]; rate 0.0158 kg/ha): 6.0
- GLXMAW herbicidal rating ([4]; rate 0.0315 kg/ha): 5.5
- GLXMAW herbicidal rating ([4]; rate 0.0630 kg/ha): 7.5
- Preemergence herbicidal rating ECHCG (ECHCG (Barnyardgrass) [5]; rate 0.0156 kg/ha): 0.0
- Preemergence herbicidal rating ECHCG (ECHCG (Barnyardgrass) [5]; rate 0.0313 kg/ha): 0.0
- Preemergence herbicidal rating ECHCG (ECHCG (Barnyardgrass) [5]; rate 0.0625 kg/ha): 0.0
- Preemergence herbicidal rating ECHCG (ECHCG (Barnyardgrass) [5]; rate 0.1250 kg/ha): 0.0
- Preemergence herbicidal rating ECHCG (ECHCG (Barnyardgrass) [5]; rate 0.2500 kg/ha): 4.0
- Preemergence herbicidal rating CHEAL ([6]; rate 0.0156 kg/ha): 9.0
- Preemergence herbicidal rating CHEAL ([6]; rate 0.0313 kg/ha): 9.0
- Preemergence herbicidal rating CHEAL ([6]; rate 0.0625 kg/ha): 9.0
- Preemergence herbicidal rating CHEAL ([6]; rate 0.1250 kg/ha): 9.0
- Preemergence herbicidal rating CHEAL ([6]; rate 0.2500 kg/ha): 9.0
- Preemergence herbicidal rating ZEAMX (ZEAMX (Corn, Field); rate 0.0156 kg/ha): 0.0
- Preemergence herbicidal rating ZEAMX (ZEAMX (Corn, Field); rate 0.0313 kg/ha): 0.0
- Preemergence herbicidal rating ZEAMX (ZEAMX (Corn, Field); rate 0.0625 kg/ha): 1.0
- Preemergence herbicidal rating ZEAMX (ZEAMX (Corn, Field); rate 0.1250 kg/ha): 4.0
- Preemergence herbicidal rating ZEAMX (ZEAMX (Corn, Field); rate 0.2500 kg/ha): 7.0
- ABUTH herbicidal rating (ABUTH (Velvetleaf); rate 0.0158 kg/ha): 9.0
- ABUTH herbicidal rating (ABUTH (Velvetleaf); rate 0.0315 kg/ha): 9.0
- ABUTH herbicidal rating (ABUTH (Velvetleaf); rate 0.0630 kg/ha): 9.0
- Preemergence herbicidal rating CASOB (CASOB (Sicklepod); rate 0.0313 kg/ha): 0.0
- Preemergence herbicidal rating CASOB (CASOB (Sicklepod); rate 0.0625 kg/ha): 0.0
- Preemergence herbicidal rating CASOB (CASOB (Sicklepod); rate 0.1250 kg/ha): 1.0
- Preemergence herbicidal rating CASOB (CASOB (Sicklepod); rate 0.2500 kg/ha): 2.0
- SETVI herbicidal rating (SETVI (Foxtail, Green); rate 0.0158 kg/ha): 1.0
- SETVI herbicidal rating (SETVI (Foxtail, Green); rate 0.0315 kg/ha): 2.0
- SETVI herbicidal rating (SETVI (Foxtail, Green); rate 0.0630 kg/ha): 7.0
- Herbicidal rating ECHORC ([7]; Rate 0.1250 kg/ha): 3.0
- Herbicidal rating ECHORC ([7]; Rate 0.2500 kg/ha): 7.0
- IPOHE herbicidal rating ([8]; rate 0.0158 kg/ha): 9.0
- IPOHE herbicidal rating ([8]; rate 0.0315 kg/ha): 9.0
- IPOHE herbicidal rating ([8]; rate 0.0630 kg/ha): 9.0
